Structures can show the parent of a compound that is named as a salt.
assay: In vitro radical scavenging action (DPPH method); conditions: not given
Protocol: The radical scavenging action of a test compound can be evaluated using an in vitro test and, for example, by a method (Antioxidants, 2019, vol. 258) using a stable radical, 1,1-diphenyl-2-picrylhydrazil (DPPH).
Radical scavenging action was evaluated using the DPPH method in the compound of Comparative Example 1, which is a tetrahydroquinoxaline derivative, and in the tetrahydroquinoline derivative (I) or a pharmaceutically acceptable salt thereof. The DPPH method was performed using an antioxidant capacity measurement kit (Dojindo Laboratories).
A test compound was dissolved in DMSO, and the resulting solution was then mixed with an assay buffer and a DPPH solution, which are included in the kit, to a total volume of 200 μL to obtain a final concentration of 10% DMSO, and the reaction was allowed to proceed. Wells added with […] ferrostatin-1, a radical scavenger, were grouped as “control,” and wells not added with test compound were grouped as “background”. The test compound was serially diluted 3-fold starting from a maximum concentration of 100 μmol/L, and the diluted test compound (1.2, 3.7, 11.1, 33.3, or 100 μmol/L) was added and allowed to react at room temperature. Thirty minutes after the reaction, the absorbance at 517 nm was measured, and the average absorbance value was calculated (N=2). The radical scavenging action of the test compound (hereinafter referred to as radical scavenging rate, %) was calculated based on Equation 2. The EC50 value of the test compound was calculated from the radical scavenging rate.
A note “no detection of radical scavenging action (N.D.),” is given to compounds with a EC50 of >100 μmol/L.

SMILES | radical scavenging action (in words)
c1ccc(C2CNc3ccccc3N2)cc1 (stereo not shown) [Comparative Example 1, 2-phenyl-1,2,3,4-tetrahydroquinoxaline, reference compound] | exhibited radical scavenging action

same assay, conditions: 1.2-100 μmol/L, 30 minutes at room temperature, absorbance at 517 nm

SMILES | EC50 [µM]
O=C(Cc1ccc2c(c1)CCC(c1ccccc1)N2)N1CC(O)C1 (stereo not shown) [Example 143, 1-(3-hydroxyazetidin-1-yl)-2-(2-phenyl-1,2,3,4-tetrahydroquinolin-6-yl)ethan-1-one hydrochloride] | > 100
c1ccc(C2CNc3ccccc3N2)cc1 (stereo not shown) [Comparative Example 1, 2-phenyl-1,2,3,4-tetrahydroquinoxaline, reference compound] | 8.54
O=C(Cc1ccc2c(c1)CCC(c1ccccc1)N2)N1CCOCC1 (stereo not shown) [Example 145, 1-morpholino-2-(2-phenyl-1,2,3,4-tetrahydroquinolin-6-yl)ethan-1-one] | > 100
O=C(Cc1ccc2c(c1)CCC(c1ccccc1)N2)N1CC(O)C1 (stereo not shown) [Example 62, 1-(3-hydroxyazetidin-1-yl)-2-(2-phenyl-1,2,3,4-tetrahydroquinolin-6-yl)ethan-1-one] | > 100
Fc1ccc(C2CCc3ccccc3N2)cc1 (stereo not shown) [Example 26, 2-(4-fluorophenyl)-1,2,3,4-tetrahydroquinoline] | > 100
NS(=O)(=O)c1ccc(C2CCc3c(Cl)cccc3N2)cc1 (stereo not shown) [Example 134, 4-(5-chloro-1,2,3,4-tetrahydroquinolin-2-yl)benzenesulfonamide] | > 100
Fc1ccc2c(c1)NC(c1ccccc1)CC2 (stereo not shown) [Example 68, 7-fluoro-2-phenyl-1,2,3,4-tetrahydroquinoline] | > 100
Clc1cccc2c1CCC(c1ccccc1)N2 (stereo not shown) [Example 67, 5-chloro-2-phenyl-1,2,3,4-tetrahydroquinoline] | > 100
O=C1CN(C(=O)Cc2ccc3c(c2)CCC(c2ccccc2)N3)CCN1 (stereo not shown) [Example 157] | > 100
NS(=O)(=O)c1ccc(C2CCc3c(F)cccc3N2)cc1 (stereo not shown) [Example 135, 4-(5-fluoro-1,2,3,4-tetrahydroquinolin-2-yl)benzenesulfonamide] | > 100
CN(CCO)C(=O)Cc1ccc2c(c1)CCC(c1ccccc1)N2 (stereo not shown) [Example 150, N-(2-hydroxyethyl)-N-methyl-2-(2-phenyl-1,2,3,4-tetrahydroquinolin-6-yl)acetamide] | > 100
c1ccc([C@H]2CCc3ccccc3N2)cc1 [Example 2, (R)-2-phenyl-1,2,3,4-tetrahydroquinoline] | > 100
O=C(Cc1ccc2c(c1)CCC(c1ccccc1)N2)N1CC(O)C1 (stereo not shown) [Example 144, 1-(3-hydroxyazetidin-1-yl)-2-(2-phenyl-1,2,3,4-tetrahydroquinolin-6-yl)ethan-1-one hydrochloride] | > 100
Cc1ccc2c(c1)NC(c1ccc(C(N)=O)cc1)CC2 (stereo not shown) [Example 106, 4-(7-methyl-1,2,3,4-tetrahydroquinolin-2-yl)benzamide] | > 100
NC(=O)c1ccc(C2CCc3c(F)cccc3N2)cc1 (stereo not shown) [Example 137, 4-(5-fluoro-1,2,3,4-tetrahydroquinolin-2-yl)benzamide] | > 100
NS(=O)(=O)c1ccc(C2CCc3cc(F)ccc3N2)cc1 (stereo not shown) [Example 107, 4-(6-fluoro-1,2,3,4-tetrahydroquinolin-2-yl)benzenesulfonamide] | > 100
NS(=O)(=O)c1ccc(C2CCc3cc(Cl)ccc3N2)cc1 (stereo not shown) [Example 115, 4-(6-chloro-1,2,3,4-tetrahydroquinolin-2-yl)benzenesulfonamide] | > 100
NC(=O)c1ccc(C2CCc3c(Cl)cccc3N2)cc1 (stereo not shown) [Example 138, 4-(5-chloro-1,2,3,4-tetrahydroquinolin-2-yl)benzamide] | > 100
NC(=O)c1ccc(C2CCc3ccccc3N2)cc1 (stereo not shown) [Example 36, 4-(1,2,3,4-tetrahydroquinolin-2-yl)benzamide] | > 100
Cc1ccc2c(c1)NC(c1ccc(S(N)(=O)=O)cc1)CC2 (stereo not shown) [Example 105, 4-(7-methyl-1,2,3,4-tetrahydroquinolin-2-yl)benzenesulfonamide] | > 100

SMILES | EC50 [µM]
NS(=O)(=O)c1ccc(C2CCc3cc(Cl)ccc3N2)cc1 (stereo not shown) [Example 116, 4-(6-chloro-1,2,3,4-tetrahydroquinolin-2-yl)benzenesulfonamide] | > 100
Cc1ccc2c(c1)CCC(c1ccc(S(N)(=O)=O)cc1)N2 (stereo not shown) [Example 120, 4-(6-methyl-1,2,3,4-tetrahydroquinolin-2-yl)benzenesulfonamide] | > 100
NC(=O)c1ccc(C2CCc3cc(Cl)ccc3N2)cc1 (stereo not shown) [Example 121, 4-(6-chloro-1,2,3,4-tetrahydroquinolin-2-yl)benzamide] | > 100
OCc1ccc2c(c1)CCC(c1ccccc1)N2 (stereo not shown) [Example 58, (2-phenyl-1,2,3,4-tetrahydroquinolin-6-yl)methanol] | > 100
O=C(Cc1ccc2c(c1)CCC(c1ccccc1)N2)NC1CC1 (stereo not shown) [Example 152, N-cyclopropyl-2-(2-phenyl-1,2,3,4-tetrahydroquinolin-6-yl)acetamide] | > 100
NC(=O)c1ccc(C2CCc3cc(Cl)ccc3N2)cc1 (stereo not shown) [Example 131, 4-(6-chloro-1,2,3,4-tetrahydroquinolin-2-yl)benzamide] | > 100
NS(=O)(=O)c1ccc(C2CCc3ccccc3N2)cc1 (stereo not shown) [Example 33, 4-(1,2,3,4-tetrahydroquinolin-2-yl)benzenesulfonamide] | > 100
CS(=O)(=O)c1ccc(C2CCc3ccccc3N2)cc1 (stereo not shown) [Example 16, 2-(4-(methylsulfonyl)phenyl)-1,2,3,4-tetrahydroquinoline] | > 100
O=C(Cc1ccc2c(c1)CCC(c1ccccc1)N2)NC1CCC1 (stereo not shown) [Example 155, N-cyclobutyl-2-(2-phenyl-1,2,3,4-tetrahydroquinolin-6-yl)acetamide] | > 100
FC(F)(F)Oc1ccc2c(c1)CCC(c1ccccc1)N2 (stereo not shown) [Example 81, 2-phenyl-6-(trifluoromethoxy)-1,2,3,4-tetrahydroquinoline] | > 100
NS(=O)(=O)c1ccc(C2CCc3ccc(F)cc3N2)cc1 (stereo not shown) [Example 118, 4-(7-fluoro-1,2,3,4-tetrahydroquinolin-2-yl)benzenesulfonamide] | > 100
Fc1cc2c(cc1F)NC(c1ccccc1)CC2 (stereo not shown) [Example 85, 6,7-difluoro-2-phenyl-1,2,3,4-tetrahydroquinoline] | > 100
FC(F)(F)Oc1ccc(C2CCc3ccccc3N2)cc1 (stereo not shown) [Example 31, 2-(4-(trifluoromethoxy)phenyl)-1,2,3,4-tetrahydroquinoline] | > 100
NS(=O)(=O)c1ccc(C2CCc3ccccc3N2)cc1 (stereo not shown) [Example 34, 4-(1,2,3,4-tetrahydroquinolin-2-yl)benzenesulfonamide] | > 100
O=C(Cc1ccc2c(c1)CCC(c1ccccc1)N2)N1CC(F)(F)C1 (stereo not shown) [Example 161, 1-(3,3-difluoroazetidin-1-yl)-2-(2-phenyl-1,2,3,4-tetrahydroquinolin-6-yl)ethan-1-one] | > 100
Clc1ccc2c(c1)CCC(c1ccccc1)N2 (stereo not shown) [Example 83, 6-chloro-2-phenyl-1,2,3,4-tetrahydroquinoline] | > 100
O=C(Cc1ccc2c(c1)CCC(c1ccccc1)N2)N1CC(F)(F)C1 (stereo not shown) [Example 149, 1-(3,3-difluoroazetidin-1-yl)-2-(2-phenyl-1,2,3,4-tetrahydroquinolin-6-yl)ethan-1-one] | > 100
Fc1cccc2c1CCC(c1ccccc1)N2 (stereo not shown) [Example 66, 5-fluoro-2-phenyl-1,2,3,4-tetrahydroquinoline] | > 100
N#Cc1ccc(C2CCc3ccccc3N2)cc1 (stereo not shown) [Example 35, 4-(1,2,3,4-tetrahydroquinolin-2-yl)benzonitrile] | > 100

— patent US20260083723A1, “THERAPEUTIC AGENT OR PROPHYLACTIC AGENT FOR AMYOTROPHIC LATERAL SCLEROSIS” (Toray Industries, Inc., priority 2022, published 2026)
